Experimental data reported in ChEMBL document CHEMBL1201862, “PubChem BioAssay data set” (2004).
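1) Cells in 96-well plates. 2) Compound, 48 h, 5 concentrations. 3) Linear interpolation between surrounding doses. 4) Unreached endpoint = highest concentration. Here, GI50 denotes the concentration required for 50% inhibition of growth.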 Calls of active or inactive are those of the source. Cut-off read from the data, not from the text of the source: active = GI50 up to about 1.1 µM and inactive = higher.

Key:
Assay in all cases: NCI-60 cell line screen, 48 h
TK-10 = test system: TK-10
M14 = test system: M14
A549 = test system: A549
MCF7 = test system: MCF7
NCI/ADR-RES = test system: NCI/ADR-RES
HCT-116 = test system: HCT-116
ACHN = test system: ACHN
COLO 205 = test system: COLO 205
HOP-62 = test system: HOP-62
SF-295 = test system: SF-295
LOX IMVI = test system: LOX IMVI
RPMI-8226 = test system: RPMI-8226
SF-268 = test system: SF-268
SNB-75 = test system: SNB-75
NCI-H226 = test system: NCI-H226
HT-29 = test system: HT-29
RXF 393 = test system: RXF 393
K562 = test system: K562
SW-620 = test system: SW-620
CCRF-CEM = test system: CCRF-CEM

SMILES	GI50 (TK-10)	GI50 (M14)	GI50 (A549)	GI50 (MCF7)	GI50 (NCI/ADR-RES)	GI50 (HCT-116)	GI50 (ACHN)	GI50 (COLO 205)	GI50 (HOP-62)	GI50 (SF-295)	GI50 (LOX IMVI)	GI50 (RPMI-8226)	GI50 (SF-268)	GI50 (SNB-75)	GI50 (NCI-H226)	GI50 (HT-29)	GI50 (RXF 393)	GI50 (K562)	GI50 (SW-620)	GI50 (CCRF-CEM)
CCOC(=O)c1cc(C)nc2c1c(=O)n(-c1ccccc1)c(=O)n2CCCCN1CCN(c2ccccc2)CC1	> 100 µM (inactive)	38.9 µM (inactive)	> 100 µM (inactive)	28.3 µM (inactive)	> 100 µM (inactive)	> 100 µM (inactive)	58.1 µM (inactive)	60 µM (inactive)	> 100 µM (inactive)	> 100 µM (inactive)	61.1 µM (inactive)	15.7 µM (inactive)	> 100 µM (inactive)	> 100 µM (inactive)	> 100 µM (inactive)	36.6 µM (inactive)	> 100 µM (inactive)	24.9 µM (inactive)	> 100 µM (inactive)	
Cc1cn([C@@H]2O[C@H](CO[Si](C)(C)C(C)(C)C)[C@]3(O[C@H]3C(=O)NO)[C@H]2O[Si](C)(C)C(C)(C)C)c(=O)[nH]c1=O	2.29 µM (inactive)	1.85 µM (inactive)	1.82 µM (inactive)	1.71 µM (inactive)	5.7 µM (inactive)	1.52 µM (inactive)	1.7 µM (inactive)	1.76 µM (inactive)	1.76 µM (inactive)	1.77 µM (inactive)	1.76 µM (inactive)	1.18 µM (inactive)	1.62 µM (inactive)	1.71 µM (inactive)	1.94 µM (inactive)	1.53 µM (inactive)	1.73 µM (inactive)	2.47 µM (inactive)	1.91 µM (inactive)	0.634 µM (active)
CN(C)CCCN1c2ccccc2Sc2ccc3ccccc3c21	4.45 µM (inactive)	1.79 µM (inactive)	13.2 µM (inactive)	5.75 µM (inactive)	7.82 µM (inactive)	10.2 µM (inactive)	8.3 µM (inactive)	4.56 µM (inactive)	12 µM (inactive)	13.2 µM (inactive)	4.91 µM (inactive)	2.48 µM (inactive)	9.06 µM (inactive)		6.58 µM (inactive)	3.52 µM (inactive)	1.65 µM (inactive)	1.86 µM (inactive)	8.3 µM (inactive)	2.23 µM (inactive)
COc1ccc(CNc2nc(NCc3ccc(OC)c(OC)c3)nc(NC3CCCCC3)n2)cc1	18.5 µM (inactive)	4.61 µM (inactive)	5.46 µM (inactive)	1.29 µM (inactive)	2.55 µM (inactive)	2.69 µM (inactive)	7.94 µM (inactive)	2.34 µM (inactive)		2.04 µM (inactive)	5.33 µM (inactive)	3.6 µM (inactive)		3.38 µM (inactive)	6.55 µM (inactive)	2.88 µM (inactive)	2.23 µM (inactive)	1.24 µM (inactive)	2.89 µM (inactive)	3.66 µM (inactive)
Cc1cc(S(=O)(=O)[N-]/C(=N/S(=O)(=O)c2cc(Cl)sc2Cl)[n+]2ccc(N(C)C)cc2)c(S)cc1Cl	49.7 µM (inactive)	30.3 µM (inactive)		84.7 µM (inactive)	> 100 µM (inactive)	24.1 µM (inactive)	67 µM (inactive)		42.3 µM (inactive)	47.9 µM (inactive)	> 100 µM (inactive)	47.5 µM (inactive)	40.1 µM (inactive)		39.3 µM (inactive)	30.6 µM (inactive)	46.3 µM (inactive)	43.9 µM (inactive)	49.9 µM (inactive)	64 µM (inactive)
C[C@]12CC[C@@H]3c4cc(I)c(O)cc4CC[C@H]3[C@@H]1CC[C@@H]2O	9.68 µM (inactive)	4.09 µM (inactive)	6.32 µM (inactive)	5.87 µM (inactive)	6.55 µM (inactive)		8.75 µM (inactive)	18.5 µM (inactive)		3.48 µM (inactive)	4.17 µM (inactive)	7.74 µM (inactive)	9.38 µM (inactive)	3.17 µM (inactive)	15.5 µM (inactive)	17.3 µM (inactive)	6.07 µM (inactive)	3.52 µM (inactive)	3.58 µM (inactive)	3.15 µM (inactive)
Cc1cc(C(=O)CSC(=S)SC(C)(C)C)ccc1Cl	25.2 µM (inactive)	16.4 µM (inactive)	20.9 µM (inactive)	25.6 µM (inactive)	19.8 µM (inactive)	18.7 µM (inactive)	25 µM (inactive)	18.4 µM (inactive)	17.4 µM (inactive)	17.7 µM (inactive)	19.9 µM (inactive)	21.9 µM (inactive)	18.2 µM (inactive)	18.2 µM (inactive)	27 µM (inactive)	25.1 µM (inactive)	13.4 µM (inactive)	31.2 µM (inactive)	23.2 µM (inactive)	
COc1ccc(C(OCC2OC(n3cc(C)c(=O)[nH]c3=O)CC2n2cc(Cn3cc(Br)c(=O)[nH]c3=O)nn2)(c2ccccc2)c2ccccc2)cc1 (stereo unspecified)	> 100 µM (inactive)	> 100 µM (inactive)	> 100 µM (inactive)	16 µM (inactive)	> 100 µM (inactive)	> 100 µM (inactive)	> 100 µM (inactive)	> 100 µM (inactive)	> 100 µM (inactive)	> 100 µM (inactive)	> 100 µM (inactive)	5.05 µM (inactive)	> 100 µM (inactive)	> 100 µM (inactive)	> 100 µM (inactive)	> 100 µM (inactive)	> 100 µM (inactive)		> 100 µM (inactive)	2.53 µM (inactive)
CSc1nn(C)cc2nc(C)nc1-2	> 100 µM (inactive)	> 100 µM (inactive)	> 100 µM (inactive)	> 100 µM (inactive)	> 100 µM (inactive)	> 100 µM (inactive)	> 100 µM (inactive)	> 100 µM (inactive)	> 100 µM (inactive)	> 100 µM (inactive)		> 100 µM (inactive)	> 100 µM (inactive)	> 100 µM (inactive)	> 100 µM (inactive)	> 100 µM (inactive)	> 100 µM (inactive)	> 100 µM (inactive)	> 100 µM (inactive)	> 100 µM (inactive)
CC(C)(C)c1cc(C(C)(C)C)c(SSc2c(C(C)(C)C)cc(C(C)(C)C)c(O)c2O)c(O)c1O		11.7 µM (inactive)	6.75 µM (inactive)	10.3 µM (inactive)	19.1 µM (inactive)	10.9 µM (inactive)	11.4 µM (inactive)	11.5 µM (inactive)			9.64 µM (inactive)	9.29 µM (inactive)	10.1 µM (inactive)	14.8 µM (inactive)	15 µM (inactive)	13.2 µM (inactive)	16.4 µM (inactive)	6.43 µM (inactive)	4.99 µM (inactive)	2.5 µM (inactive)
CCN1CCCCC(=N\O)/C(=N/O)CCCC1	> 100 µM (inactive)	> 100 µM (inactive)	> 100 µM (inactive)	> 100 µM (inactive)	> 100 µM (inactive)	> 100 µM (inactive)	> 100 µM (inactive)	> 100 µM (inactive)	> 100 µM (inactive)	> 100 µM (inactive)	> 100 µM (inactive)	> 100 µM (inactive)	> 100 µM (inactive)	> 100 µM (inactive)	> 100 µM (inactive)	> 100 µM (inactive)	> 100 µM (inactive)		> 100 µM (inactive)	> 100 µM (inactive)
C[n+]1c2ccccc2n2c3ccccc3c(NCc3ccco3)c(C#N)c21	1.52 µM (inactive)	2.3 µM (inactive)	3.15 µM (inactive)	0.575 µM (active)	2.2 µM (inactive)	0.957 µM (active)	1.46 µM (inactive)	1.67 µM (inactive)	1.46 µM (inactive)	2.67 µM (inactive)	1.05 µM (active)	0.546 µM (active)	2.42 µM (inactive)	2.02 µM (inactive)	2.23 µM (inactive)	2.7 µM (inactive)	1.65 µM (inactive)	1.49 µM (inactive)	0.64 µM (active)	
S=C1NC2=C(COc3ccccc32)C(c2ccc(Cl)cc2)N1 (stereo unspecified)		18.7 µM (inactive)	20.2 µM (inactive)	19.1 µM (inactive)	18.9 µM (inactive)	15.5 µM (inactive)	22.9 µM (inactive)	18.7 µM (inactive)	17.1 µM (inactive)	13.8 µM (inactive)	16.3 µM (inactive)	5.78 µM (inactive)	17.6 µM (inactive)	20 µM (inactive)	17.6 µM (inactive)	15.5 µM (inactive)	15.5 µM (inactive)	15.6 µM (inactive)	28.6 µM (inactive)	21.3 µM (inactive)
Nc1nc(SCc2ccccc2)c2ncn(Cc3ccccc3)c2n1	> 100 µM (inactive)	> 100 µM (inactive)	> 96.2 µM (inactive)	> 90.8 µM (inactive)	> 100 µM (inactive)	> 100 µM (inactive)	> 100 µM (inactive)	> 100 µM (inactive)	> 100 µM (inactive)	> 100 µM (inactive)	> 100 µM (inactive)	> 75.9 µM (inactive)	> 84.7 µM (inactive)	35.8 µM (inactive)	> 100 µM (inactive)	> 81.8 µM (inactive)	62.2 µM (inactive)	> 87.3 µM (inactive)	> 100 µM (inactive)	
